Measurements from patent publication US12338219B2, “Antimalarial agents” (Merck Sharp & Dohme LLC, priority 2019, dated 2025).

Each compound was assayed on parasites (ring stage parasites, parasite growth) (assay: Parasite LDH growth assay (Parasite Assay), antiparasite potency). Details: 72 h, 72 hours growth, LDH readout; Table 3.
Type: cell-based
Protocol: Assessing Antiparasite Potency in a Parasite LDH Growth Assay (Parasite Assay) The parasite stock was maintained at […] in RPMI-Hepes media buffered with sodium bicarbonate and supplemented with […]. […] On the day of assay set up, a blood smear of the parasite culture was Giemsa stained and counted. The parasitemia was adjusted to 0.7% rings and the haematocrit was diluted to 2% in RPMI-Hepes media buffered with sodium bicarbonate and supplemented with 500 heat inactivated human serum and 0.5% albumax. 30 ul of diluted parasites are then added into 10 ul of media+compound in pre-prepared Greiner TC assay plates. Parasite assay plates were placed in gassed humidified boxes in single layer and allowed to incubate at 37° C. for 72 hours. After 72 hours growth, assay plates are sealed with parafilm and frozen flat, in single file at −80° C. overnight. On the following day, assay plates are allowed to thaw at room temperature for 4 hours to which an LDH assay is performed to measure parasite growth.
For `CCC1(CC)CC(=O)N([C@H](CCOC)[C@@H]2C[C@H]2C(=O)N[C@H]2CC(C)(C)Oc3ccccc32)C(=N)N1` [Example 1A], the EC50 was 1 nM. `CCC1(CC)CC(=O)N([C@H](CCOC)[C@@H]2C[C@H]2C(=O)N[C@@H]2CC(C)(C)Oc3ccccc32)C(=N)N1` [Example 1B] showed an EC50 of 250 nM. Compound `CCC1(CC)CC(=O)N([C@H](c2cccnc2)[C@@H]2C[C@H]2C(=O)N[C@H]2CC(C)(C)Oc3ccccc32)C(=N)N1` [Example 2, (1R,2R)-2-((S)-(4,4-diethyl-2-imino-6-oxotetrahydropyrimidin-1(2H)-yl)(pyridin-3-yl)methyl)-N—((S)-2,2-dimethylchroman-4-yl)cyclopropanecarboxamide] has an EC50 of 0.9 nM. `CCC1(CC)CC(=O)N(C[C@H]2C[C@@H]2C(=O)N[C@@H](C)c2ccccc2)C(=N)N1` [Example 3A] was tested, and the EC50 was 234 nM. For `CCC1(CC)CC(=O)N(C[C@@H]2C[C@H]2C(=O)N[C@@H](C)c2ccccc2)C(=N)N1` [Example 3B], the EC50 was 151 nM. `CCC1(CC)CC(=O)N(C[C@H]2C[C@@H]2C(=O)N[C@H]2CCOc3ccccc32)C(=N)N1` [Example 4A] gave an EC50 of 94 nM. `CCC1(CC)CC(=O)N(C[C@@H]2C[C@H]2C(=O)N[C@H]2CCOc3ccccc32)C(=N)N1` [Example 4B] showed an EC50 of 26 nM. For `CCC1(CC)CC(=O)N(CC2CC2C(=O)N[C@H]2CCOc3ccccc32)C(=N)N1` (stereo partly shown) [Example 4C], the EC50 was 85 nM. `CCC1(CC)CC(=O)N(C[C@@H]2C[C@H]2C(=O)N[C@H]2CC(C)(C)Oc3ccccc32)C(=N)N1` [Example 5] gave an EC50 of 49 nM. In the case of `CCC1(CC)CC(=O)N(C[C@H]2C[C@@H]2C(=O)N[C@@H]2c3ccccc3C[C@H]2O)C(=N)N1` [Example 6A], the EC50 is reported as 188 nM. For `CCC1(CC)CC(=O)N(C[C@@H]2C[C@H]2C(=O)N[C@@H]2c3ccccc3C[C@H]2O)C(=N)N1` [Example 6B], the EC50 was 269 nM. `CCC1(CC)CC(=O)N(C[C@@H]2C[C@H]2C(=O)N[C@H]2CC(C)(C)Oc3ccc(F)cc32)C(=N)N1` [Example 7A] was tested, and the EC50 was 135 nM. Work on `CCC1(CC)CC(=O)N(C[C@@H]2C[C@H]2C(=O)N[C@@H]2CC(C)(C)Oc3ccc(F)cc32)C(=N)N1` [Example 7B] yielded an EC50 of 29 nM. For `CCC1(CC)CC(=O)N(C[C@@H]2C[C@H]2C(=O)N[C@H]2C[C@H](C(F)(F)F)Oc3ccccc32)C(=N)N1` [Example 8A], the EC50 was 37 nM. `CCC1(CC)CC(=O)N(C[C@@H]2C[C@H]2C(=O)N[C@@H]2C[C@@H](C(F)(F)F)Oc3ccccc32)C(=N)N1` [Example 8B] was tested, and the EC50 was 5.3 nM. `CCC1(CC)CC(=O)N([C@H](c2cccnc2)[C@@H]2C[C@H]2C(=O)N[C@H]2CCOc3ccccc32)C(=N)N1` [Example 9] showed an EC50 of 6.9 nM. For `CCC1(CC)CC(=O)N([C@H](c2cccnc2)[C@@H]2C[C@H]2C(=O)N[C@@H]2c3ccccc3C[C@H]2O)C(=N)N1` [Example 10], the EC50 was 27 nM. In the case of `CCC1(CC)CC(=O)N([C@H](c2cccnc2)[C@@H]2C[C@H]2C(=O)N[C@H]2c3ccccc3OC(C)(C)[C@@H]2O)C(=N)N1` [Example 11A], the EC50 is reported as 4.1 nM. With `CCC1(CC)CC(=O)N([C@H](c2cccnc2)[C@@H]2C[C@H]2C(=O)N[C@@H]2c3ccccc3OC(C)(C)[C@H]2O)C(=N)N1` [Example 11B] the EC50 was 24 nM. `CCC1(CC)CC(=O)N([C@H](c2cccnc2)[C@@H]2C[C@H]2C(=O)N[C@H]2C[C@H](C(F)(F)F)Oc3ccccc32)C(=N)N1` [Example 12] showed an EC50 of 0.9 nM. Work on `CCC1(CC)CC(=O)N([C@H](CCOC)[C@@H]2C[C@H]2C(=O)N[C@@H]2c3ccccc3C[C@H]2O)C(=N)N1` [Example 13] yielded an EC50 of 24 nM. For `CCC1(CC)CC(=O)N([C@H](CCOC)[C@@H]2C[C@H]2C(=O)N[C@H]2C[C@H](C(F)(F)F)Oc3ccccc32)C(=N)N1` [Example 14], the EC50 was 0.9 nM. For `CCC1(CC)CC(=O)N(CC2C(C(=O)N[C@H]3CCOc4ccccc43)C2(F)F)C(=N)N1` (stereo partly shown) [Example 15A], the EC50 was 240 nM. For `CCC1(CC)CC(=O)N(C[C@H]2C(C(=O)N[C@@H]3c4ccccc4OC(C)(C)[C@H]3O)C2(F)F)C(=N)N1` (stereo partly shown) [Example 18A], the EC50 was 39 nM. In the case of `CCC1(CC)CC(=O)N(C[C@@H]2[C@@H](C(=O)N[C@@H]3c4ccccc4OC(C)(C)[C@H]3O)C2(F)F)C(=N)N1` [Example 18B], the EC50 is reported as 180 nM.

Same assay, conditions: 72 hours growth, LDH readout; Table 3
In the case of `CC[C@]1(C)CC(=O)N(C(c2cncc(F)c2)[C@@H]2C[C@H]2C(=O)NC2c3ccccc3OC(C(F)(F)F)C2O)C(=N)N1` (single isomer, unassigned) [Example 104A], the EC50 is reported as 4 nM. `CC[C@]1(C)CC(=O)N(C(c2cncc(F)c2)[C@@H]2C[C@H]2C(=O)NC2c3ccccc3OC(C(F)(F)F)C2O)C(=N)N1` (single isomer, unassigned) [Example 104B] gave an EC50 of 22 nM. `CCC1(C)CC(NC(=O)[C@@H]2C[C@H]2[C@@H](c2cccnc2)N2C(=N)NC(C)(C)CC2=O)c2ccccc2O1` (single isomer, unassigned) [Example 105A] gave an EC50 of 0.9 nM. In the case of `CCC1(C)CC(NC(=O)[C@@H]2C[C@H]2[C@@H](c2cccnc2)N2C(=N)NC(C)(C)CC2=O)c2ccccc2O1` (single isomer, unassigned) [Example 105B], the EC50 is reported as 1.8 nM. In the case of `CCC1(C)CC(NC(=O)[C@@H]2C[C@H]2[C@@H](c2cccnc2)N2C(=N)NC(C)(C)CC2=O)c2ccccc2O1` (single isomer, unassigned) [Example 105C], the EC50 is reported as 0.8 nM. `CCC1(C)CC(NC(=O)[C@@H]2C[C@H]2[C@@H](c2cccnc2)N2C(=N)NC(C)(C)CC2=O)c2ccccc2O1` (single isomer, unassigned) [Example 105D] showed an EC50 of 0.9 nM. `COCC1(C)CC(NC(=O)[C@@H]2C[C@H]2[C@@H](c2cccnc2)N2C(=N)NC(C)(C)CC2=O)c2ccccc2O1` (single isomer, unassigned) [Example 108A] gave an EC50 of 70 nM. `COCC1(C)CC(NC(=O)[C@@H]2C[C@H]2[C@@H](c2cccnc2)N2C(=N)NC(C)(C)CC2=O)c2ccccc2O1` (single isomer, unassigned) [Example 108B] was tested, and the EC50 was 3.7 nM. For `COCC1(C)CC(NC(=O)[C@@H]2C[C@H]2[C@@H](c2cccnc2)N2C(=N)NC(C)(C)CC2=O)c2ccccc2O1` (single isomer, unassigned) [Example 108C], the EC50 was 6 nM. For `COCC1(C)CC(NC(=O)[C@@H]2C[C@H]2[C@@H](c2cccnc2)N2C(=N)NC(C)(C)CC2=O)c2ccccc2O1` (single isomer, unassigned) [Example 108D], the EC50 was 8.5 nM. For `CC1(C)CC(=O)N([C@H](c2cccnc2)[C@@H]2C[C@H]2C(=O)NC2CC(C)(C)Oc3ccc(C(F)(F)F)cc32)C(=N)N1` (single isomer, unassigned) [Example 109A], the EC50 was 2.3 nM. With `CC1(C)CC(=O)N([C@H](c2cccnc2)[C@@H]2C[C@H]2C(=O)NC2CC(C)(C)Oc3ccc(C(F)(F)F)cc32)C(=N)N1` (single isomer, unassigned) [Example 109B] the EC50 was 1 nM. In the case of `CC[C@]1(C)CC(=O)N([C@H](CCOC)[C@@H]2C[C@H]2C(=O)NC2CC(C)(C)Oc3ccc(F)cc32)C(=N)N1` (single isomer, unassigned) [Example 130A], the EC50 is reported as 0.9 nM. `CC[C@]1(C)CC(=O)N([C@H](CCOC)[C@@H]2C[C@H]2C(=O)NC2CC(C)(C)Oc3ccc(F)cc32)C(=N)N1` (single isomer, unassigned) [Example 130B] showed an EC50 of 2.4 nM. Compound `CCC1C[C@H](NC(=O)[C@@H]2C[C@H]2CN2C(=N)NC(C)(C)CC2=O)c2ccccc2O1` (single isomer, unassigned) [Example 133A] has an EC50 of 210 nM. Work on `CCC1C[C@H](NC(=O)[C@@H]2C[C@H]2CN2C(=N)NC(C)(C)CC2=O)c2ccccc2O1` (single isomer, unassigned) [Example 133B] yielded an EC50 of 100 nM. `CCC1(CC)CC(=O)N(CC2CC2C(=O)N[C@H]2CCOc3ccccc32)C(=N)N1` (stereo partly shown) [Example 4D] gave an EC50 of 91 nM. `CCC1(CC)CC(=O)N(CC2C(C(=O)N[C@H]3CCOc4ccccc43)C2(F)F)C(=N)N1` (stereo partly shown) [Example 15B] showed an EC50 of 230 nM.

Same assay, conditions: 72 hours growth, LDH readout; Table 4 (unit inferred)
For `CCC1(CC)CC(=O)N(C(CC(C)OC)[C@@H]2C[C@H]2C(=O)N[C@H]2CC(C)(C)Oc3ccccc32)C(=N)N1` (single isomer, unassigned) [Example 142A], the EC50 was 1.9 nM. In the case of `CCC1(CC)CC(=O)N(C(CC(C)OC)[C@@H]2C[C@H]2C(=O)N[C@H]2CC(C)(C)Oc3ccccc32)C(=N)N1` (single isomer, unassigned) [Example 142B], the EC50 is reported as 0.7 nM. For `CCC1(CC)CC(=O)N(C(CC(C)OC)[C@@H]2C[C@H]2C(=O)N[C@H]2CC(C)(C)Oc3ccccc32)C(=N)N1` (single isomer, unassigned) [Example 142C], the EC50 was 205 nM. With `CCC1(CC)CC(=O)N(C(CC(C)OC)[C@@H]2C[C@H]2C(=O)N[C@H]2CC(C)(C)Oc3ccccc32)C(=N)N1` (single isomer, unassigned) [Example 142D] the EC50 was 115 nM. For `CCC1(CC)CC(=O)N(C(CC(C)OC)[C@@H]2C[C@H]2C(=O)N[C@@H]2CC(C)(C)Oc3ccccc32)C(=N)N1` (single isomer, unassigned) [Example 143A], the EC50 was 4.6 nM. Work on `CCC1(CC)CC(=O)N(C(CC(C)OC)[C@@H]2C[C@H]2C(=O)N[C@@H]2CC(C)(C)Oc3ccccc32)C(=N)N1` (single isomer, unassigned) [Example 143B] yielded an EC50 of 2.4 nM. `CCC1(CC)CC(=O)N(C(CC(C)OC)[C@@H]2C[C@H]2C(=O)N[C@@H]2CC(C)(C)Oc3ccccc32)C(=N)N1` (single isomer, unassigned) [Example 143C] showed an EC50 of 57.9 nM. `CCC1(CC)CC(=O)N([C@H](CCOC)[C@@H]2C[C@H]2C(=O)NC2CC(C)(C)Oc3cc(Cl)ccc32)C(=N)N1` (single isomer, unassigned) [Example 147A] gave an EC50 of 2.8 nM. `CCC1(CC)CC(=O)N([C@H](CCOC)[C@@H]2C[C@H]2C(=O)NC2CC(C)(C)Oc3cc(Cl)ccc32)C(=N)N1` (single isomer, unassigned) [Example 147B] gave an EC50 of 8.2 nM.
